# Assays:
# Format in all cases: in vivo
# [1] = test system: rice (variety: Koshihikari); assay: Effect of enhancing yield of rice (pot test, treatment after ear emergence); conditions: for Number of ears per stock / Number of rice grains per ear / Weight of thousand grains / Ripening rate: ALA hydrochloride 0.1 g/10 a foliage x3, prohexadione calcium salt 0.4 g/10 a, 3 days after ear emergence; for Ripening rate: number of rice grains having specific gravity of 1.06 or more/number of total rice grains x100, in %; for Yield of rice per stock: product of ears per stock, grains per ear, ripening rate and thousand-grain weight, ALA hydrochloride 0.1 g/10 a, prohexadione calcium salt 0.4 g/10 a
# Method: Seeds of rice (variety: Koshihikari) were sterilized with 70% ethanol, and rice seeds heavier than a specific gravity of 1.13 were screened by brine washing. Water absorption for one night at 30° C. and germination for one night were carried out, and then the seeds were sowed in a seedling box (4/11). A certain amount of kuroboku soil was placed in a 15-L Polybucket (1/17500×10 a), a synthetic fertilizer was mixed therein as a basal fertilizer such that N-P-K=5-5-5 kg/10 a, and water was drawn in to a water depth of 3 cm. Grown seedlings were planted at 3 stocks per bucket (5/15). […] Furthermore, 5-aminolevulic acid (ALA) hydrochloride was used for a foliage treatment for three times (8/14, 8/30, 9/10) at 0.1 […]). Four buckets were used for one test zone, and the buckets were placed randomly so as not to be affected by the place.
# [2] = test system: Turnip (variety: Honami); assay: Comparative Example: combined treatment during seedling growth, turnip yield (field test); conditions: ALA hydrochloride 0.2 g/10a; prohexadione calcium salt 20 g/10a; 7 days before initiation of enlargement (seedling growth)
# Method: Turnip (variety: […] At this time, a synthetic fertilizer was applied as a basal fertilizer such that N-P-K=5-5-5 kg/10 a. Four stocks were planted per test zone, and 4 test zones were set up randomly for one condition so as not to be affected by the place. […] After harvesting (11/12), the weights of the aerial part and the terrestrial part of the plant body were measured.
# [3] = test system: sunflower (variety: Hybrid Sunflower); assay: Effect of enhancing yield of sunflower seeds (field test, treatment after flowering); conditions: ALA hydrochloride 0.2 g/10a foliage x2, uniconazole P 0.3 g/10a, 7 days after flowering; for Number of filled seeds / Weight of filled seeds: empty seeds excluded
# Method: A test field (red soil) was divided into 0.7 m^2 per compartment, and sunflower (variety: Hybrid Sunflower) was planted (6/9). A synthetic fertilizer was applied as a basal fertilizer such that N-P-K=5.0-5.0-5.0 kg/10 a (6/9). Four stocks were planted per test zone, and in the middle of growth, thinning was performed to make the test zone uniform so that there would be two stocks per test zone. Seven days after flowering, a Sumiseven P liquid preparation (containing 0.025% of uniconazole P) as an gibberellin biosynthesis inhibitor was used for treatment such that the amount of treatment of uniconazole P would be 0.3 […]) (8/20). Furthermore, a foliage treatment with 5-aminolevulic acid hydrochloride was performed at 0.2 […]), two times in total at the date of uniconazole P treatment (8/20) and 2 weeks after the uniconazole P treatment (9/3). As additional fertilization, a synthetic fertilizer was applied such that N-P-K=3.0-3.0-3.0 kg/10 a (7/8). After harvesting (9/16), the number and weight of seeds of each plant body were measured. This time, empty seeds without kernels were excluded. The test zone was provided as 6 test zones under each condition.
# [4] = test system: radish (variety: Red Chime); assay: Effect of enhancing yield of radish hypocotyl (pot test); conditions: ALA hydrochloride 0.1 g/10a foliage 6 days after prohexadione; prohexadione calcium salt 15 g/10a, 10 days after initiation of hypocotyl enlargement
# Method: A certain amount of kuroboku soil was placed in a No. 6 pot (1/75000×10 a), and radish (variety: Red Chime) was planted (5/4). A liquid fertilizer Hyponica was applied as a basal fertilizer such that N-P-K=5.0-2.8-8.5 kg/10 a (5/8). Five stocks were planted per pot, and in the middle of growth, thinning was performed to make the test zone uniform so that there would be 3 stocks per pot. Ten days after the initiation of hypocotyl enlargement, prohexadione calcium salt was used as an gibberellin biosynthesis inhibitor to treat at 15 […]) (5/27). Furthermore, a treatment with 5-aminolevulic acid hydrochloride was performed at 0.1 […]) under the conditions of performing a foliage treatment (6/2) six days after the treatment with prohexadione calcium salt. […] Seven pots were used per test zone.
# [5] = test system: barley; assay: Effect of enhancing yield of barley grains (pot test, treatment around ear emergence)
# Method: A certain amount of kuroboku soil was placed in a 15-L Polybucket (1/17500×10 a), a liquid fertilizer Hyponica was applied as a basal fertilizer such that N-P-K=5.0-2.8-8.5 kg/10 a, and barley was sowed (11/3). Five stocks of seedlings were planted per bucket, and in the middle of growth, thinning was performed to make the test zone uniform so that there would be 3 stocks per bucket. Five days before ear emergence (4/15), prohexadione calcium salt was used as an gibberellin biosynthesis inhibitor to treat at 7.0, 3.5 […]) (4/10). Furthermore, a treatment with 5-aminolevulic acid hydrochloride was performed at 0.15 […]) under the conditions of performing a foliage treatment each time at the respective times of before (4/3), simultaneously with (4/10) and after (5/8) the treatment with prohexadione calcium salt. […] Four buckets were used per test zone.
SMILES,Number of ears per stock [1],Number of rice grains per ear [1],Weight of thousand grains [1] [g],Ripening rate [1],Yield of rice per stock [1] [g],Weight of aerial part [2] [kg/stock],Weight of terrestrial part [2] [kg/stock],Live weight of plant body [3] [kg/stock],Number of filled seeds [3] [seeds/stock],Weight of filled seeds [3] [g/stock],Fresh weight of hypocotyl [4] [g],"Weight of grains per stock ([5]; ALA hydrochloride 0.15 g.a.i/10 a at the time 7 days before prohexadione calcium salt treatment (4/3), prohexadione calcium salt none) [g]","Weight of grains per stock ([5]; ALA hydrochloride 0.15 g.a.i/10 a at the time 28 days after prohexadione calcium salt treatment (5/8), prohexadione calcium salt none) [g]","Weight of grains per stock ([5]; ALA hydrochloride 0.15 g.a.i/10 a at the time simultaneous with prohexadione calcium salt treatment (4/10), prohexadione calcium salt none) [g]","Weight of grains per stock ([5]; ALA hydrochloride none, prohexadione calcium salt 3.5 g.a.i/10 a, 5 days before ear emergence) [g]","Weight of grains per stock ([5]; ALA hydrochloride none, prohexadione calcium salt 7 g.a.i/10 a, 5 days before ear emergence) [g]"
"Cl.NCC(=O)CCC(=O)O [ALA hydrochloride, 5-aminolevulic acid hydrochloride]",20.2,80.12,21.9,88.71,31.4,0.368,0.725,1.68,1348,120.5,12.2,6.59,6.45,6.83,–,–
"CCC(=O)C1=C([O-])CC(C(=O)[O-])CC1=O.[Ca+2] (stereo not drawn) [Prohexadione calcium salt, calcium 3-oxido-5-oxo-4-propionyl-3-cyclohexene carboxylate]",20.2,80.35,22.22,86.09,31.0,0.349,0.641,–,–,–,10.3,–,–,–,6.23,6.60
"CC(C)(C)[C@H](O)/C(=C\c1ccc(Cl)cc1)n1cncn1 [Uniconazole P, (E)-(S)-1-(4-chlorophenyl)-4,4-dimethyl-2-(1H-1,2,4-triazol-1-yl)pent-1-en-3-ol]",–,–,–,–,–,–,–,1.96,1377,126.3,–,–,–,–,–,–

# Reference: patent publication US20100234231A1, “YIELD ENHANCING AGENT FOR HARVESTING PART OF CROP” (priority 2009, published 2010)
